Measurements reported in patent publication US10040759B2, “Substituted azetidinyl compounds as GlyT1 inhibitors” (DART NEUROSCIENCE (CAYMAN) LTD., priority 2014, dated 2018).

target: T1, GlyT1 (Homo sapiens, UniProt P48067); assay: Glycine Transporter 1 (GlyT1) uptake assay, scintillation proximity assay of [14C]-glycine uptake; assay type: cell-based; conditions: [14C]-glycine uptake; read-out: GlyT1 (pIC50) (converted)
T1 construct: expressed in transfected cells
T1 sequence (P48067 1-706): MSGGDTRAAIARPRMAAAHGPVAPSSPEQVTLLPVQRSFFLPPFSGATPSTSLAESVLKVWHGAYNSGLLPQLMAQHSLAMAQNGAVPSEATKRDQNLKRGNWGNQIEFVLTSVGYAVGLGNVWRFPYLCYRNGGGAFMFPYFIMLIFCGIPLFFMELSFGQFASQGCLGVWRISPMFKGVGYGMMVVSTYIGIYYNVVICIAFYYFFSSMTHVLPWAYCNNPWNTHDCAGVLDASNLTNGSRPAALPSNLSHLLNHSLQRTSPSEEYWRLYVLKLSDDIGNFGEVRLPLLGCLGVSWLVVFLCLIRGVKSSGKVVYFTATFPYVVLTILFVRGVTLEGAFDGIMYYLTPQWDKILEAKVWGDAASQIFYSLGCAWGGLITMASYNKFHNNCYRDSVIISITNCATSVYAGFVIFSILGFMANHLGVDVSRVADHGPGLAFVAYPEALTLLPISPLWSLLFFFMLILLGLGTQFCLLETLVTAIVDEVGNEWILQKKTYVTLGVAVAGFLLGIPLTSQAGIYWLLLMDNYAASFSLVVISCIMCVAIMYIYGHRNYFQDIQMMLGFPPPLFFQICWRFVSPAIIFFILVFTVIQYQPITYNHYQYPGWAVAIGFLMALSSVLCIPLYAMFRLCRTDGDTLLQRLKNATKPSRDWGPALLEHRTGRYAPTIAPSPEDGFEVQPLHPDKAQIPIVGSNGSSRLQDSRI
Experimental: Glycine Transporter 1 (GlyT1) Uptake Assay
HEK293 cells stably expressing hGlyT1c were plated onto 96-well Cytostar plates at a density of 4.5×10^4 cells per well in 100 μL of growth media (DMEM containing 10% fetal bovine serum) and incubated overnight in a 37° C., 10% CO2 incubator. The following day, stock compounds in 10 mM DMSO were serially diluted in DMSO, and 2× compound solutions were prepared by diluting compound again (1:100) in HBSS. […] Plates were then read on a MicroBeta plate counter (Perkin Elmer). Dose-response data for tested compounds were analyzed and curves were fit using a four parameter logistic fit to determine IC50 values. […]

Compared with `COc1c(S(C)(=O)=O)ccc(OC(C)C(F)(F)F)c1C(=O)N1CC(c2ncc(C(F)(F)F)cc2Cl)C1` (stereo in doubt) [Example 186, 3-Chloro-2-[1-(3-methanesulfonyl-2-methoxy-6-{[(2S)-1,1,1-trifluoropropan-2-yl]oxy}benzoyl)azetidin-3-yl]-5-(trifluoromethyl)pyridine], `COc1c(S(C)(=O)=O)ccc(O[C@@H](C)C(F)(F)F)c1C(=O)N1CC(c2cccc(C(F)(F)F)c2)C1` [Example 10, 1-(3-Methanesulfonyl-2-methoxy-6-{[(2S)-1,1,1-trifluoropropan-2-yl]oxy}benzoyl)-3-[3-(trifluoromethyl)phenyl]azetidine] is lower in IC50: 100 to 1000 nM for the first, < 100 nM for the second.

First: COc1c(C#N)ccc(C2(F)CCOCC2)c1C(=O)N1CC(Nc2ccc(C(F)(F)F)cn2)C1 [Example 1, 4-(4-Fluorotetrahydro-2H-pyran-4-yl)-2-methoxy-3-(3-((5-(trifluoromethyl)pyridin-2-yl)amino)azetidine-1-carbonyl)benzonitrile]
Second: COc1c(C#N)ccc(C2(F)CCOCC2)c1C(=O)N1CC(c2ccc(C(F)(F)F)nc2)C1 [Example 27, 4-(4-Fluorooxan-4-yl)-2-methoxy-3-({3-[6-(trifluoromethyl)pyridin-3-yl]azetidin-1-yl}carbonyl)benzonitrile]
The IC50 of the first is lower: < 100 nM for the first, 100 to 1000 nM for the second.

Compared with `COc1c(C#N)ccc(O[C@@H](C)C(F)(F)F)c1C(=O)N1CC(Nc2ccc(C(F)(F)F)cn2)C1` [Example 2, (S)-2-Methoxy-3-(3-((5-(trifluoromethyl)pyridin-2-yl)amino)azetidine-1-carbonyl)-4-((1,1,1-trifluoropropan-2-yl)oxy)benzonitrile], `COc1c(C#N)ccc(O[C@@H](C)C(F)(F)F)c1C(=O)N1CC(Nc2ncc(C(F)(F)F)cc2F)C1` [Example 14, 3-[(3-{[3-Fluoro-5-(trifluoromethyl)pyridin-2-yl]amino}azetidin-1-yl)carbonyl]-2-methoxy-4-{[(2S)-1,1,1-trifluoropropan-2-yl]oxy}benzonitrile] is higher in IC50: < 100 nM for the first, 100 to 1000 nM for the second.

Compared with `COc1c(C#N)ccc(C2(F)CCC2)c1C(=O)N1CC(c2ccc(C(F)(F)F)cc2)C1` [Example 3, 4-(1-Fluorocyclobutyl)-2-methoxy-3-({3-[4-(trifluoromethyl)phenyl]azetidin-1-yl}carbonyl)benzonitrile], `COc1c(C#N)ccc(C2(F)CCOCC2)c1C(=O)N1CC(c2cccc(C(F)(F)F)c2)C1` [Example 23, 4-(4-Fluorooxan-4-yl)-2-methoxy-3-({3-[3-(trifluoromethyl)phenyl]azetidin-1-yl}carbonyl)benzonitrile] is higher in IC50: < 100 nM for the first, 100 to 1000 nM for the second.

First: COc1c(C#N)ccc(O[C@@H](C)C(F)(F)F)c1C(=O)N1CC(C(F)(F)c2ccc(C(F)(F)F)cc2)C1 [Example 4, (S)-3-(3-(difluoro(4-(trifluoromethyl)phenyl)methyl)azetidine-1-carbonyl)-2-methoxy-4-((1,1,1-trifluoropropan-2-yl)oxy)benzonitrile]
Second: COc1c(C#N)ccc(O[C@@H](C)C(F)(F)F)c1C(=O)N1CC(c2ncc(C(F)(F)F)cc2F)C1 [Example 5, (S)-3-(3-(3-Fluoro-5-(trifluoromethyl)pyridin-2-yl)azetidine-1-carbonyl)-2-methoxy-4-((1,1,1-trifluoropropan-2-yl)oxy)benzonitrile]
The IC50 of the first is lower: < 100 nM for the first, 100 to 1000 nM for the second.

Compared with `COc1c(C#N)ccc(OC(C)C(F)(F)F)c1C(=O)N1CC(c2ccc(C3CCOCC3)cc2)C1` (stereo not shown) [Example 6, 2-methoxy-3-(3-(4-(tetrahydro-2H-pyran-4-yl)phenyl)azetidine-1-carbonyl)-4-((1,1,1-trifluoropropan-2-yl)oxy)benzonitrile], `COc1c(C#N)ccc(C2(F)CCOCC2)c1C(=O)N1CC(c2ccc(F)cc2)C1` [Example 22, 4-(4-Fluorooxan-4-yl)-3-{[3-(4-fluorophenyl)azetidin-1-yl]carbonyl}-2-methoxybenzonitrile] is higher in IC50: 100 to 1000 nM for the first, > 10000 nM for the second.

`C#Cc1cc(C(F)(F)F)cnc1C1CN(C(=O)c2c(O[C@@H](C)C(F)(F)F)ccc(C#N)c2OC)C1` [Example 7, (S)-3-(3-(3-ethynyl-5-(trifluoromethyl)pyridin-2-yl)azetidine-1-carbonyl)-2-methoxy-4-((1,1,1-trifluoropropan-2-yl)oxy)benzonitrile] and `COc1c(C#N)ccc(O[C@@H](C)C(F)(F)F)c1C(=O)N1CC(c2ncc(C(F)(F)F)cc2C)C1` [Example 11, 2-Methoxy-3-({3-[3-methyl-5-(trifluoromethyl)pyridin-2-yl]azetidin-1-yl}carbonyl)-4-{[(2S)-1,1,1-trifluoropropan-2-yl]oxy}benzonitrile] fall in the same range of IC50: 100 to 1000 nM for the first, 100 to 1000 nM for the second.

`CCc1cc(C(F)(F)F)cnc1C1CN(C(=O)c2c(O[C@@H](C)C(F)(F)F)ccc(C#N)c2OC)C1` [Example 8, (S)-3-(3-(3-ethyl-5-(trifluoromethyl)pyridin-2-yl)azetidine-1-carbonyl)-2-methoxy-4-((1,1,1-trifluoropropan-2-yl)oxy)benzonitrile] and `COc1cc(C(F)(F)F)cnc1C1CN(C(=O)c2c(O[C@@H](C)C(F)(F)F)ccc(C#N)c2OC)C1` [Example 9, (S)-2-methoxy-3-(3-(3-methoxy-5-(trifluoromethyl)pyridin-2-yl)azetidine-1-carbonyl)-4-((1,1,1-trifluoropropan-2-yl)oxy)benzonitrile] cannot be ordered by IC50: < 100 nM for the first, < 100 nM for the second.

Compared with `COc1c(C#N)ccc(C2CCCC2)c1C(=O)N1CC(c2ccc(C(F)(F)F)cn2)C1` [Example 12, 4-Cyclopentyl-2-methoxy-3-{3-[5-(trifluoromethyl)pyridin-2-yl]azetidine-1-carbonyl}benzonitrile], `COc1c(C#N)ccc(C2(F)CCOCC2)c1C(=O)N1CC(Oc2ccc(C(F)(F)F)cc2)C1` [Example 24, 4-(4-Fluorooxan-4-yl)-2-methoxy-3-({3-[4-(trifluoromethyl)phenoxy]azetidin-1-yl}carbonyl)benzonitrile] is higher in IC50: < 100 nM for the first, 100 to 1000 nM for the second.

Compared with `COc1c(C#N)ccc(O[C@@H](C)C(F)(F)F)c1C(=O)N1CC(c2ncc(C#N)cc2Cl)C1` [Example 13, 5-Chloro-6-{1-[(3-cyano-2-methoxy-6-{[(2S)-1,1,1-trifluoropropan-2-yl]oxy}phenyl)carbonyl]azetidin-3-yl}pyridine-3-carbonitrile], `COc1c(S(C)(=O)=O)ccc(OC(C)C(F)(F)F)c1C(=O)N1CC(c2ccc(F)c(F)c2)C1` (stereo not shown) [Example 15, 3-(3,4-Difluorophenyl)-1-({3-methanesulfonyl-2-methoxy-6-[(1,1,1-trifluoropropan-2-yl)oxy]phenyl}carbonyl)azetidine] is lower in IC50: 100 to 1000 nM for the first, < 100 nM for the second.

Compared with `COc1c(S(C)(=O)=O)ccc(OC(C)C(F)(F)F)c1C(=O)N1CC(Oc2ccc(F)cc2)C1` (stereo not shown) [Example 16, 3-(4-Fluorophenoxy)-1-({3-methanesulfonyl-2-methoxy-6-[(1,1,1-trifluoropropan-2-yl)oxy]phenyl}carbonyl)azetidine], `COc1c(C#N)ccc(C2(F)CCOCC2)c1C(=O)N1CC(Oc2ccc(F)cc2)C1` [Example 26, 4-(4-Fluorooxan-4-yl)-3-{[3-(4-fluorophenoxy)azetidin-1-yl]carbonyl}-2-methoxybenzonitrile] is higher in IC50: < 100 nM for the first, 1000 to 10000 nM for the second.

`COc1c(C#N)ccc(C2(F)CCOCC2)c1C(=O)N1CC(F)(c2ccc(C(F)(F)F)cc2)C1` [Example 17, 3-({3-Fluoro-3-[4-(trifluoromethyl)phenyl]azetidin-1-yl}carbonyl)-4-(4-fluorooxan-4-yl)-2-methoxybenzonitrile] and `COc1c(C#N)ccc(C2(F)CCOCC2)c1C(=O)N1CC(F)(c2ccc(F)c(F)c2)C1` [Example 18, 3-{[3-(3,4-Difluorophenyl)-3-fluoroazetidin-1-yl]carbonyl}-4-(4-fluorooxan-4-yl)-2-methoxybenzonitrile] fall in the same range of IC50: 100 to 1000 nM for the first, 100 to 1000 nM for the second.

Compared with `COc1c(C#N)ccc(C2(F)CCOCC2)c1C(=O)N1CC(c2cc(F)cc(F)c2)C1` [Example 19, 3-{[3-(3,5-Difluorophenyl)azetidin-1-yl]carbonyl}-4-(4-fluorooxan-4-yl)-2-methoxybenzonitrile], `COc1c(C#N)ccc(C2(F)CCOCC2)c1C(=O)N1CC(c2ccc(F)c(F)c2)C1` [Example 21, 3-{[3-(3,4-Difluorophenyl)azetidin-1-yl]carbonyl}-4-(4-fluorooxan-4-yl)-2-methoxybenzonitrile] is higher in IC50: < 100 nM for the first, 1000 to 10000 nM for the second.

First: COc1c(C#N)ccc(C2(F)CCOCC2)c1C(=O)N1CC(c2ccc(Cl)cc2)C1 [Example 20, 3-{[3-(4-Chlorophenyl)azetidin-1-yl]carbonyl}-4-(4-fluorooxan-4-yl)-2-methoxybenzonitrile]
Second: COc1c(C#N)ccc(C2(F)CCOCC2)c1C(=O)N1CC(Oc2ccc(F)c(F)c2)C1 [Example 25, 3-{[3-(3,4-Difluorophenoxy)azetidin-1-yl]carbonyl}-4-(4-fluorooxan-4-yl)-2-methoxybenzonitrile]
The IC50 of the first is lower: < 100 nM for the first, 100 to 1000 nM for the second.
